Legend:
WM-266-4 cells = experiment: Cytotoxicity on WM-266-4 cells; type: cell-based, human; settings: even at highest concentration
CYP3A2 = target: T1, CYP3A2 (Rattus norvegicus, UniProt P05183); experiment: CYP inhibition in rat liver microsomes, substrate cocktail, LC-MS/MS (midazolam); type: in vitro ADME; settings: pH 7.4, probe midazolam 2 μM, read-out: IC50 for RLM, CYP3A2 (table row CYP3A4)
T1 sequence (P05183 1-504): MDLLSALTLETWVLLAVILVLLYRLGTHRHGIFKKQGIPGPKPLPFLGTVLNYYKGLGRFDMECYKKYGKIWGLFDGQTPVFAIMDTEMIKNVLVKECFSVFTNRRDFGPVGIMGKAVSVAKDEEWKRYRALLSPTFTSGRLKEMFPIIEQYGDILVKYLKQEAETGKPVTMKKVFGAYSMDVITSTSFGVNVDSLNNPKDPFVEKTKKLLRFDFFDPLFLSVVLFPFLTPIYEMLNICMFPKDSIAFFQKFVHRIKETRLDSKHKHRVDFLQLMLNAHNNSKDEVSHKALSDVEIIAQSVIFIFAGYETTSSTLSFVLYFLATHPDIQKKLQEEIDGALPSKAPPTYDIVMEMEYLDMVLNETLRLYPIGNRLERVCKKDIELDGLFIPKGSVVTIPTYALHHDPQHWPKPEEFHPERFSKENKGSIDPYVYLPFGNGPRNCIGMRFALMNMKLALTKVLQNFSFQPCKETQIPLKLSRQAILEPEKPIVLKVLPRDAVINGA
Text: (§1) Positive controls (furafyline for CYP1A2, montelukast for CYP2C8, sulfaphenazole for CYP2C9, S-(+)-N-3-benzylnirvanol for CYP2C19, quinidine for CYP2D6, ketoconazole for CYP3A4) and specific substrates (phenacetin for CYP1A2, paclitaxel for CYP2C8, diclofenac for CYP2C9, S-mephenytoin for CYP2C19, dextromethorphan for CYP2D6, midazolam for CYP3A4) are consistent with our previous papers. The substrates were used at concentrations approximately equal to their respective Michaelis-Menten constant (Km) values: 10 μM phenacetin, 5 μM paclitaxel, 5 μM diclofenac, 200 μM S-mephenytoin, 5 μM dextromethorphan, and 2 μM midazolam. NADP^+ was added after a 15 min preincubation of all other components at 37 °C. After a given incubation time (30 min), the reactions were terminated by addition of 60 μL ice-cold acetonitrile containing gemfibrozil and buspirone as internal standards. Incubation samples were stored at −80 °C until used in liquid chromatography-tandem mass spectrometry (LC-MS/MS) analysis. The mixture was centrifuged at 3,500 rpm for 5 min. The supernatant was mixed with equal volume of a 1:1 mixture of methanol and water and 20 μL of the final mixture was used for LC-MS/ MS analysis. […]
(§2) The CYP inhibition potential were evaluated by measuring the formation of one or more metabolites of the test substrates. […]

rat CYP1A2 = settings: cited from earlier work
CYP2C7 = target: T2, CYP2C7 (Rattus norvegicus, UniProt P05179); experiment: CYP inhibition in rat liver microsomes, substrate cocktail, LC-MS/MS (paclitaxel); type: in vitro ADME; settings: 95% CI in brackets, read-out: IC50 for RLM, CYP2C7 (table row CYP2C8)
T2 construct: Pooled rat liver microsomes were prepared from three male Sprague-Dawley rats; from tissue; host or cells: pooled liver microsomes of three male Sprague-Dawley rats, prepared at HD Biosciences Co
T2 sequence (P05179 1-490): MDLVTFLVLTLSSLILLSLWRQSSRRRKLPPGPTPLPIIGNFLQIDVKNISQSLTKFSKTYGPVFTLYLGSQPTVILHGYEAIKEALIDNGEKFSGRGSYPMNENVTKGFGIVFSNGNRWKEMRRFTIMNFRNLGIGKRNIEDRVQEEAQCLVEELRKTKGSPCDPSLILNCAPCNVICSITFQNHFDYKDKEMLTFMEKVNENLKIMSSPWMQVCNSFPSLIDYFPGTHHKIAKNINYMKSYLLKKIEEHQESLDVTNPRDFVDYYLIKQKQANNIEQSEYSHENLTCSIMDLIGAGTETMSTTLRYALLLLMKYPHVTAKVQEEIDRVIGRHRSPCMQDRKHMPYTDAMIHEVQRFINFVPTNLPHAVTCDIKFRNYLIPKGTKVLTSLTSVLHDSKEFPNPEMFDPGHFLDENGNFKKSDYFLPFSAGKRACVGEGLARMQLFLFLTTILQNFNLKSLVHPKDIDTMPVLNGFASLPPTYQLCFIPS
Text: as §1, §2

O=C(O)[C@H]1O[C@@H](Oc2cc3oc(-c4ccc(O)cc4)cc(=O)c3c(O)c2O)[C@H](O)[C@@H](O)[C@@H]1O [scutellarin, Scutellarin]
cytotoxicity on WM-266-4 cells (WM-266-4 cells): does not show cytotoxicity
IC50 at 30 min (CYP3A2): > 100 µM
IC50 (rat CYP1A2; in vitro experiments): 108.2 ± 0.657 µM
Ki (rat CYP1A2; weak mixed-type inhibition, read-out: Ki against the activity of CYP1A2): 95.2 µM
IC50 (CYP2C7): 63.1 µM
